Activity calls are given as the source filed them. How the calls were made is not given here. Some results are limits rather than exact numbers.

Usually EC50 stands for the concentration that produces a half-maximal response.

For the assay, the system named is Leishmania major promastigote growth inhibition. The assay can be described thus: antileishmanial activity against L. major promastigotes – EC50, dose response (AID 2008).
With `COC(=O)[C@@H]1[C@@H](C(=O)OC)C2(c3ccccc3-c3ccccc32)N(c2ccc(Cl)cc2)N1C#N`, the EC50 is > 5000 nM (inactive).

Take `O=C(Cn1cnc([N+](=O)[O-])c1)Nc1cc(Oc2ccc(Cl)cc2Cl)cc([N+](=O)[O-])c1`: the EC50 was 1510 nM.

As for `COc1ccc(NC(=O)/C(Cl)=C(/Cl)S(=O)Cc2ccccc2Cl)cn1` (stereo not drawn), the EC50 is 241 nM.

With `CC(C)(C)C1CCC2(CC1)Nc1cccc3cccc(c13)N2`, the EC50 was 1840 nM.

Regarding `c1ccc(C2CCC(N3CCC(N4CCCCC4)CC3)CC2)cc1` (stereo not drawn), the EC50 is 2530 nM.

For the molecule `COc1cc(NC(C)CCCN)c2ncccc2c1Oc1ccccc1` (stereo not drawn), the EC50 is below 10 nM.

Take `O=C1c2ccccc2C(=O)C12Cc1ccccc1N1CCN(c3ccccc3)CC12` (stereo not drawn): the EC50 was 1910 nM.

As to `CC(C)(C)c1ccc(C(=O)C2CCCN(C3CCC3)C2)cc1` (stereo not drawn), the EC50 is 10.7 nM.

Take `CCc1ccc(NSc2ccccc2[N+](=O)[O-])cc1`: the concentration for a half-maximal effect (EC50) is 748 nM.

Turning to `O=C(c1cccnc1)N(c1cc2sc(=O)oc2c2ccccc12)S(=O)(=O)c1ccccc1`, the EC50 was 191 nM.

Regarding `CCN(CC)c1ccc(NC(=O)CN2CCN(S(=O)(=O)c3cc(Cl)ccc3OC)CC2)cc1`, the EC50 is 3640 nM.

Turning to `Cc1[nH]c2c(Cl)cccc2c(=O)c1CN1CCCC1`, the EC50 was 390 nM.

Consider `C[C@@]1(CO)[C@H](O)CC[C@@]2(C)[C@H]1CC[C@H]1C[C@@H]3C[C@@]12CC[C@]3(O)CO`, for which the EC50 was 121 nM.

Regarding `COc1cc(CNCc2cccs2)ccc1OCc1ccccc1`, the EC50 was 162 nM.

As to `C=CCn1cccc(/C=C/C(=O)c2ccc(C(C)(C)C)cc2)c1=S`, the EC50 is 1790 nM.

Regarding `O=S(=O)(CCSc1nc2ccccc2s1)c1nc2ccccc2s1`, the EC50 was 716 nM.

`O=C(CCl)Nc1cccc(-c2cnc3ccccc3n2)c1`: the EC50 is 1110 nM.

On to `COCCCN1CCN(c2nnc3n2-c2sc(Br)cc2C(c2ccccc2Cl)=NC3)CC1`, for which the concentration for a half-maximal effect (EC50) was 595 nM.

For `CCOC(=O)N=Nc1c2ccccc2c2nc3no[nH]c3nc12`, the EC50 is 784 nM.

For `CN(C)c1nc(-c2ccccn2)nnc1-c1ccccc1`, the EC50 was 1460 nM.

For the molecule `O=Nc1c2cc(-c3ccccc3)[nH]nc-2c2ccccc12`, the half-maximal effective concentration (EC50) is 2210 nM.

In the case of `CCN(CC)CCN(C)C1CCC(c2ccccc2)CC1` (stereo not drawn), the EC50 was 823 nM.

`Cc1cccc(-c2cc3c(N=O)c4ccccc4c-3n[nH]2)c1`: the EC50 was 1540 nM.

As to `CCN(CC)CCOC(c1ccccc1)c1ccc(C)cc1` (stereo not drawn), the EC50 is 1100 nM.

As to `Cc1nnc(Nc2ccccn2)c2ccccc12`, the EC50 was 722 nM.

In the case of `CN(CCN1CCc2ccccc2C1)Cc1nc(Cc2ccccc2F)no1`, the EC50 was 1400 nM.

As to `O=C(c1ccc(-c2ccccc2)c(F)c1)C1CCCN(CCO)C1` (stereo not drawn), the EC50 is 510 nM.

For the molecule `COC(=O)c1ccc(COc2ccc(C3C4=C(CCCC4=O)Nc4onc(C)c43)cc2)cc1` (stereo not drawn), the EC50 is 1540 nM.

Regarding `CN(C)c1cc(N/N=C/c2ccc(Cl)cc2)nc(N(C)C)n1`, the EC50 was 502 nM.

Consider `CN(C)CCCN=c1cc(-c2ccccc2)oc2ccc(Cl)cc12`, for which the EC50 is 1640 nM.

In the case of `O=C(COc1ccccc1F)NC1CCN(Cc2ccccc2)CC1`, the EC50 is 140 nM.

On to `c1ccc(CNc2nc(-c3cccs3)nc3ccccc23)cc1`, for which the EC50 is 2140 nM.

Take `O=C1CC(c2ccccc2Br)c2cc3c(cc2N1)CCC3` (stereo not drawn): the EC50 is 253 nM.

For `Fc1cccc(-c2nnn3c2nc(Cl)c2ccccc23)c1`, the EC50 was 490 nM.

As for `O=C(NC1CCCC1)C(c1ccc(F)cc1)N(Cc1ccc(Cl)cc1)C(=O)CCl` (stereo not drawn), the EC50 is 1760 nM.

Take `O=[N+]([O-])c1ccc(-c2nc(-c3cccs3)c(-c3cccs3)[nH]2)cc1`: the EC50 is 1970 nM.

`Cc1nn(-c2nc3ccccc3[nH]2)c(N)c1-c1ccc(Cl)cc1`: the EC50 is 1540 nM.

Turning to `COc1ccc2cc3[n+](cc2c1OC)CCc1cc2c(cc1-3)OCO2`, the EC50 was 375 nM.

Take `Cn1cc(CN2CCC(CO)CC2)c(-c2ccc(Oc3ccccc3)cc2)n1`: the concentration for a half-maximal effect (EC50) was 164 nM.

Take `Nc1nn(-c2ccccc2)c(N)c1N=Nc1ccc2c(c1)OCO2`: the EC50 is 846 nM.

`Cc1ccc(-c2cc(-c3ccc(C)cc3)[n+](C)o2)cc1`: the EC50 was 183 nM.

Regarding `CCCCCCCCC[n+]1cccc2c3ccccc3ccc21`, the EC50 is 2.45 nM.

Turning to `COC(=O)c1ccc2c(c1)C(C)(C)C(/C=C/c1ccc(OC)c(OC)c1OC)=[N+]2C`, the EC50 was 2.45 nM.

In the case of `CCCCCCCCCCCCCCCC[n+]1ccc(/C=N/O)cc1`, the EC50 is 9.38 nM.

Consider `COc1ccc(-[n+]2c(C)cc(/C=C3\Sc4ccccc4N3C)cc2C)cc1`, for which the EC50 is below 10 nM.

On to `O=C(Nc1ccc(Cl)cn1)c1ccc([N+](=O)[O-])o1`, for which the EC50 is 205 nM.

In the case of `N#CC(c1cccc(Cl)c1)c1ccc2c(C(F)(F)F)cc(C(F)(F)F)nc2n1` (stereo not drawn), the EC50 is 1180 nM.

As to `CCOC(=O)C(=Cc1cc(=O)c(OC)co1)C(=O)OCC`, the EC50 is 165 nM.

As for `CC1(C)C(=O)C=C[C@]2(C)[C@H]3CC[C@@]4(C)[C@H](c5ccoc5)OC(=O)[C@H]5O[C@]54[C@]3(C)[C@H](O)C[C@@H]12`, the EC50 is 982 nM.

With `CN(C)C(=S)SSC(=S)N(C)C`, the EC50 is 97.1 nM.

For the molecule `COC(=O)c1cc2ccsc2n1Cc1nc(-c2ccc(OC)cc2)oc1C`, the concentration giving a half-maximal response (EC50) is 104 nM.

For `NCC12CC3CC(C1)CC(c1ccc(Cl)cc1)(C3)C2`, the EC50 is 354 nM.

For the molecule `COC(=O)c1ccc(-c2ccc(CNCC(O)c3ccccc3)o2)cc1` (stereo not drawn), the EC50 is 102 nM.

As to `N=C(N)c1ccc(OCCCCCOc2ccc(C(=N)N)cc2)cc1`, the EC50 is 45.1 nM.

For `Cc1ccc2nc3cc([N+](=O)[O-])cc([N+](=O)[O-])c3cc2c1`, the EC50 is 288 nM.

Regarding `Cc1cc(C)c2c(c1)-c1cc(C)nn1C(c1ccc3c(c1)OCO3)N2` (stereo not drawn), the EC50 was 1320 nM.

Regarding `Cc1cccc(OCCn2c(NC(=O)c3ccco3)nc3ccccc32)c1`, the EC50 was 1870 nM.

With `COC(=O)CNc1nc(-c2ccccc2F)nc2ccccc12`, the EC50 was 742 nM.

Consider `C[C@H]1C[C@@H](C)C(=O)[C@@H]([C@H](O)CC2CC(=O)NC(=O)C2)C1`, for which the EC50 was 1 nM.

With `CC12CCC(C(=O)N(CCCN3CCN(Cc4ccccc4)CC3)C1=O)C2(C)C` (stereo not drawn), the EC50 is 565 nM.

As to `Cc1ccc(-c2cc3cccc[n+]3cc2-c2ccc(C)cc2)cc1`, the EC50 was 228 nM.

For the molecule `c1ccc2c(c1)OC(CCCN1CCCCC1)c1ccccc1S2` (stereo not drawn), the EC50 is 134 nM.

With `c1cnc2c(c1)ccc1cccnc12`, the EC50 was > 5000 nM (inactive).

Turning to `Cc1cc(C(=O)CCl)c(C)n1Cc1ccco1`, the EC50 was 783 nM.

Turning to `COc1ccc2c3c(cccc13)NN=C2C`, the EC50 is 255 nM.

For `O=C1C2ON(c3ccc(Br)cc3)C(c3cccnc3)C2C(=O)N1C1CCCCC1` (stereo not drawn), the EC50 is 513 nM.

For the molecule `Cc1ccc2c(c1)-c1cc(C)nn1C(c1ccc3c(c1)OCO3)N2` (stereo not drawn), the EC50 is 1590 nM.

For the molecule `c1ccc(-c2cc(-c3nnc4sc(-c5ccccn5)nn34)[nH]n2)cc1`, the EC50 was 4090 nM.

Values taken from PubChem BioAssay AID2008 (University of Pittsburgh Molecular Library Screening Center, 2009).
